Results as given in patent US20250346574A1, “PYRIDINYL SUBSTITUTED OXOISOINDOLINE COMPOUNDS FOR THE TREATMENT OF CANCER” (Bristol-Myers Squibb Company, priority 2021, published 2025).

Molecular target: Helios (Homo sapiens, UniProt Q96SW2+Q9UKS7)
Assay: Helios Human T Regulatory Cells Degradation Assay
Type: cell-based
Design: fluorescently labelled antibodies against Helios in 1× Permeabilization buffer; endogenous in cells; host or cells: cryopreserved human T regulatory cells
Details: cryopreserved human T regulatory cells, incubated 20 hours, Helios-APC antibody staining, flow cytometry; read-out: hTreg Helios DC50
Procedure: Cryopreserved human T regulatory cells were thawed in RPMI+10% FBS+20 ng/mL IL-2. After being spun at 1200 rpm for 5 mins, the cells were resuspended in RPMI+10% FBS+20 ng/mL and rested at 37° C. with 5% CO2 for 3 hours. […] Cell cultures were incubated for 20 hours at 37° C. and 5% CO2. In order to facilitate analysis, cell cultures were spun down at 1200 rpm for 5 minutes and the supernatant was discarded using an EL406 plate washer. After washing three times with 70 μL PBS, cell pellets were resuspended in 50 μL of near IR viability staining solution (Life Technologies, Cat #L34975) and incubated for 30 minutes on ice protected from light. Cells were washed three times with 70 μL PBS+0.5% BSA using an EL406 plate washer. […] Subsequently, 30 μL of 1× Permeabilization buffer was added prior to centrifuging the cells and discarding the supernatant. Stained cells were resuspended in 30 μL of flow cytometry staining buffer (PBS+0.5% BSA) and analyzed using an Intellicyt Ique Plus flow cytometer.

Sequence of Helios (Q9UKS7 whole entry): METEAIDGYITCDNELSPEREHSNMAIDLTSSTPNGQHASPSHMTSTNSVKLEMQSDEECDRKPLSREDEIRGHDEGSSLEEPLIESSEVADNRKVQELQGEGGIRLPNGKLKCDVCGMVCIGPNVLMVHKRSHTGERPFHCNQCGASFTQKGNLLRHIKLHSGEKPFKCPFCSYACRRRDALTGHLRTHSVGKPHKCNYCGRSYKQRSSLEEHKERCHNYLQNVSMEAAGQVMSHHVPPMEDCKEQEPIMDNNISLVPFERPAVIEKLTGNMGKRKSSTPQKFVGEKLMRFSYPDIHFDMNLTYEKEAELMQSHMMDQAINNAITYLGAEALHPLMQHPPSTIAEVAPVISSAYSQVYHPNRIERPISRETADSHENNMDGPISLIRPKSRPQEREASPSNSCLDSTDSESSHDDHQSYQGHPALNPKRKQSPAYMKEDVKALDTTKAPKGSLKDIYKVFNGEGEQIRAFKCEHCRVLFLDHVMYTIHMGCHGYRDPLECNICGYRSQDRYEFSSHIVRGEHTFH
Sequence of Helios (Q96SW2 whole entry): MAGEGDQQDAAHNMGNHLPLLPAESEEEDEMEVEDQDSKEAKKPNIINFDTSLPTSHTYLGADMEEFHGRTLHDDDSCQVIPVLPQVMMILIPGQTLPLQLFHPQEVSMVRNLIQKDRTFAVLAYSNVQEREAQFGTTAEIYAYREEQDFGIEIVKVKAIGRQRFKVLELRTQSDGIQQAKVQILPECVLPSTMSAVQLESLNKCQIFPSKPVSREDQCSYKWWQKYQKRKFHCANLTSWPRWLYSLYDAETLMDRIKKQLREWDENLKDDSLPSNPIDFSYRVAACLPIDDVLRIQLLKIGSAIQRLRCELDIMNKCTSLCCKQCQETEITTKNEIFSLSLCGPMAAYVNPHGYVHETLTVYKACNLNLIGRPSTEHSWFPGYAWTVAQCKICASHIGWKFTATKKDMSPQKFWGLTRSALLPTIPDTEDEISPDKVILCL
Sequence of Helios (Q16531 whole entry partner): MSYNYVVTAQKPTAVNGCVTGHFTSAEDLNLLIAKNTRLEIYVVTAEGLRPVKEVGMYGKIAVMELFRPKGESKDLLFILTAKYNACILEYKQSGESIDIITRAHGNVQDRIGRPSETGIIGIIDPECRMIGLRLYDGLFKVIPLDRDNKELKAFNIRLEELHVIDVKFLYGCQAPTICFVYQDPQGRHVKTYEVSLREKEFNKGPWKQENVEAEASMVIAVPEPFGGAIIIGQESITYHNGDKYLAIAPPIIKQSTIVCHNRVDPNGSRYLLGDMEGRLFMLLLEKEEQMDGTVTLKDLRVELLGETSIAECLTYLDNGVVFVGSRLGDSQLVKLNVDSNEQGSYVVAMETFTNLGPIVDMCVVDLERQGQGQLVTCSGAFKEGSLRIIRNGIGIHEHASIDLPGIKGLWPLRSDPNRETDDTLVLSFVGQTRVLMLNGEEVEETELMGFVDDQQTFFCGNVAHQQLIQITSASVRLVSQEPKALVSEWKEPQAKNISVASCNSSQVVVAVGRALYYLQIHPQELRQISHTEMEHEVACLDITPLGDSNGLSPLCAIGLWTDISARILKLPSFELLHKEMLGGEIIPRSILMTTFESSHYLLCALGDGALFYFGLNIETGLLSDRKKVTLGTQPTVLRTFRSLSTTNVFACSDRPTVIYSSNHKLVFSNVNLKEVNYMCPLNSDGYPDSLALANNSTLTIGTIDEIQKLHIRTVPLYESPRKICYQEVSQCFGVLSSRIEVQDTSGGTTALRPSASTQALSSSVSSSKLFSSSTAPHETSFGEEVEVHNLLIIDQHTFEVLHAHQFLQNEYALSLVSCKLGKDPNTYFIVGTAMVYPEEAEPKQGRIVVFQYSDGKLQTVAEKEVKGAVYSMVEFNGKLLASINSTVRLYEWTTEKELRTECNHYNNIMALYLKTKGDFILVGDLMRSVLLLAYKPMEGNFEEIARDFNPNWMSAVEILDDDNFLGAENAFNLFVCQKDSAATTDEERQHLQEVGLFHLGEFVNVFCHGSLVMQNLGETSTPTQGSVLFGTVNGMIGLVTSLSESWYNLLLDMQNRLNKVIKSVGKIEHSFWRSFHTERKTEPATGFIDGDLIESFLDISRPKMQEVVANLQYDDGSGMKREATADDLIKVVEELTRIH

DC50 [µM]	SMILES
0.0791	C[C@@H]1c2c(ccc(-c3cc(CN4CCC(C)(O)C4)ccn3)c2F)C(=O)N1[C@H]1CCC(=O)NC1=O (stereo partly drawn) [Example 140, (3S)-3-((3R)-4-fluoro-5-(4-((3-hydroxy-3-methylpyrrolidin-1-yl)methyl)pyridin-2-yl)-3-methyl-1-oxoisoindolin-2-yl)piperidine-2,6-dione]
≥ 10	C[C@@H]1c2c(ccc(-c3cc(CN4CC[C@@H](Oc5ccccc5)C4)ccn3)c2F)C(=O)N1[C@H]1CCC(=O)NC1=O [Example 141, (S)-3-((R)-4-fluoro-3-methyl-1-oxo-5-(4-(((R)-3-phenoxypyrrolidin-1-yl)methyl)pyridin-2-yl)isoindolin-2-yl)piperidine-2,6-dione]
0.0007	O=C1CC[C@H](N2Cc3cc(-c4cc(CN5CC6(CC(O)C6)C5)ccn4)ccc3C2=O)C(=O)N1 [Example 145, (S)-3-(5-(4-((6-hydroxy-2-azaspiro[3.3]heptan-2-yl)methyl)pyridin-2-yl)-1-oxoisoindolin-2-yl)piperidine-2,6-dione]
0.003	O=C1CC[C@H](N2Cc3cc(-c4cc(CN5CC6CC(O)CC6C5)ccn4)ccc3C2=O)C(=O)N1 (stereo partly drawn) [Example 146, (3S)-3-(5-(4-((5-hydroxyhexahydrocyclopenta[c]pyrrol-2(1H)-yl)methyl)pyridin-2-yl)-1-oxoisoindolin-2-yl)piperidine-2,6-dione]
0.0037	CC1=CC2CN(Cc3ccnc(-c4ccc5c(c4)CN([C@H]4CCC(=O)NC4=O)C5=O)c3)CC2C1 (stereo partly drawn) [Example 148, (3S)-3-(5-(4-((5-methyl-3,3a,4,6a-tetrahydrocyclopenta[c]pyrrol-2(1H)-yl)methyl)pyridin-2-yl)-1-oxoisoindolin-2-yl)piperidine-2,6-dione]
0.0067	O=C1CC[C@H](N2Cc3cc(-c4nccc(CN5C[C@H]6CCC(O)C[C@H]6C5)c4F)ccc3C2=O)C(=O)N1 (stereo partly drawn) [Example 149, (3S)-3-(5-(3-fluoro-4-(((3aR,7aS)-5-hydroxyoctahydro-2H-isoindol-2-yl)methyl)pyridin-2-yl)-1-oxoisoindolin-2-yl)piperidine-2,6-dione]
≥ 10	O=C1CC[C@H](N2Cc3cc(-c4nccc(CN5CCC6(CCNC6=O)CC5)c4F)ccc3C2=O)C(=O)N1 [Example 150, (S)-3-(5-(3-fluoro-4-((1-oxo-2,8-diazaspiro[4.5]decan-8-yl)methyl)pyridin-2-yl)-1-oxoisoindolin-2-yl)piperidine-2,6-dione]
0.167	O=C1CC[C@H](N2Cc3cc(-c4nccc(CN5C[C@H]6COC[C@H]6C5)c4F)ccc3C2=O)C(=O)N1 [Example 151, (S)-3-(5-(3-fluoro-4-(((3aR,6aS)-tetrahydro-1H-furo[3,4-c]pyrrol-5(3H)-yl)methyl)pyridin-2-yl)-1-oxoisoindolin-2-yl)piperidine-2,6-dione]
0.0188	O=C1CC[C@H](N2Cc3cc(-c4cc(CN5C[C@H]6COC[C@H]6C5)ccn4)ccc3C2=O)C(=O)N1 [Example 152, (S)-3-(1-oxo-5-(4-(((3aR,6aS)-tetrahydro-1H-furo[3,4-c]pyrrol-5(3H)-yl)methyl)pyridin-2-yl)isoindolin-2-yl)piperidine-2,6-dione]
0.0153	O=C1CC[C@H](N2Cc3cc(-c4nccc(CN5CC6(CC(O)C6)C5)c4F)ccc3C2=O)C(=O)N1 [Example 153, (S)-3-(5-(3-fluoro-4-((6-hydroxy-2-azaspiro[3.3]heptan-2-yl)methyl)pyridin-2-yl)-1-oxoisoindolin-2-yl)piperidine-2,6-dione]
0.284	CC(C)(C)OC(=O)N1C[C@@H]2CN(Cc3ccnc(-c4ccc5c(c4)CN([C@H]4CCC(=O)NC4=O)C5=O)c3F)C[C@H]2C1 [Example 154, tert-butyl (3aS,6aS)-5-((2-(2-((S)-2,6-dioxopiperidin-3-yl)-1-oxoisoindolin-5-yl)-3-fluoropyridin-4-yl)methyl)hexahydropyrrolo[3,4-c]pyrrole-2(1H)-carboxylate]
0.0109	O=C1CC[C@H](N2Cc3cc(-c4nccc(CN5CC6CCCC6C5)c4F)ccc3C2=O)C(=O)N1 (stereo partly drawn) [Example 155, (3S)-3-(5-(3-fluoro-4-((hexahydrocyclopenta[c]pyrrol-2(1H)-yl)methyl)pyridin-2-yl)-1-oxoisoindolin-2-yl)piperidine-2,6-dione]
≥ 10	CC(C)(C)OC(=O)N1C[C@H]2CN(Cc3ccnc(-c4ccc5c(c4)CN([C@H]4CCC(=O)NC4=O)C5=O)c3F)C[C@H]2C1 [Example 156, tert-butyl (3aR,6aS)-5-((2-(2-((S)-2,6-dioxopiperidin-3-yl)-1-oxoisoindolin-5-yl)-3-fluoropyridin-4-yl)methyl)hexahydropyrrolo[3,4-c]pyrrole-2(1H)-carboxylate]
0.0025	O=C1CCC(N2Cc3cc(-c4cc(CN5CC6(CCCCC6)C5)ccn4)ccc3C2=O)C(=O)N1 (stereo not shown) [Example 157, 3-(5-(4-((2-azaspiro[3.5]nonan-2-yl)methyl)pyridin-2-yl)-1-oxoisoindolin-2-yl) piperidine-2,6-dione]
0.0032	O=C1CC[C@H](N2Cc3cc(-c4cc(CN5CC6(CCOCC6)C5)ccn4)ccc3C2=O)C(=O)N1 [Example 158, (S)-3-(5-(4-((7-oxa-2-azaspiro[3.5]nonan-2-yl)methyl)pyridin-2-yl)-1-oxoisoindolin-2-yl)piperidine-2,6-dione]
0.0146	O=C1CCC(N2Cc3cc(-c4cc(CN5CC(CNC(=O)c6ccccc6)C5)ccn4)ccc3C2=O)C(=O)N1 (stereo not shown) [Example 159, N-((1-((2-(2-(2,6-dioxopiperidin-3-yl)-1-oxoisoindolin-5-yl)pyridin-4-yl)methyl)azetidin-3-yl)methyl)benzamide]
0.0619	CN(C(=O)c1ccccc1)C1CN(Cc2ccnc(-c3ccc4c(c3)CN([C@H]3CCC(=O)NC3=O)C4=O)c2)C1 [Example 160, (S)—N-(1-((2-(2-(2,6-dioxopiperidin-3-yl)-1-oxoisoindolin-5-yl)pyridin-4-yl)methyl)azetidin-3-yl)-N-methylbenzamide]
0.223	CN(C1CN(Cc2ccnc(-c3ccc4c(c3)CN([C@H]3CCC(=O)NC3=O)C4=O)c2)C1)S(C)(=O)=O [Example 161, (S)—N-(1-((2-(2-(2,6-dioxopiperidin-3-yl)-1-oxoisoindolin-5-yl)pyridin-4-yl)methyl)azetidin-3-yl)-N-methylmethanesulfonamide]
0.0287	CN(C1CN(Cc2ccnc(-c3ccc4c(c3)CN([C@H]3CCC(=O)NC3=O)C4=O)c2)C1)S(=O)(=O)c1ccccc1 [Example 162, (S)—N-(1-((2-(2-(2,6-dioxopiperidin-3-yl)-1-oxoisoindolin-5-yl)pyridin-4-yl)methyl)azetidin-3-yl)-N-methylbenzenesulfonamide]
0.0159	CN(CC1CN(Cc2ccnc(-c3ccc4c(c3)CN([C@H]3CCC(=O)NC3=O)C4=O)c2)C1)C(=O)c1ccccc1 [Example 164, (S)—N-((1-((2-(2-(2,6-dioxopiperidin-3-yl)-1-oxoisoindolin-5-yl)pyridin-4-yl)methyl)azetidin-3-yl)methyl)-N-methylbenzamide]
0.178	O=C1CCC(N2Cc3cc(-c4cc(Cn5cccn5)ccn4)ccc3C2=O)C(=O)N1 (stereo not shown) [Example 165, 3-(5-(4-((1H-pyrazol-1-yl)methyl)pyridin-2-yl)-1-oxoisoindolin-2-yl)piperidine-2,6-dione]
≥ 10	Cc1cnn(Cc2ccnc(-c3ccc4c(c3)CN([C@H]3CCC(=O)NC3=O)C4=O)c2)c1 [Example 166, (S)-3-(5-(4-((4-methyl-1H-pyrazol-1-yl)methyl)pyridin-2-yl)-1-oxoisoindolin-2-yl)piperidine-2,6-dione]
0.001	Cc1cnc(-c2ccc3c(c2)CN(C2CCC(=O)NC2=O)C3=O)cc1CN1CCC(C(C)(C)O)CC1 (stereo not shown) [Example 167, 3-(5-(4-((4-(2-hydroxypropan-2-yl)piperidin-1-yl)methyl)-5-methylpyridin-2-yl)-1-oxoisoindolin-2-yl)piperidine-2,6-dione]
0.0037	Cc1cnc(-c2ccc3c(c2)CN(C2CCC(=O)NC2=O)C3=O)cc1CN1CC2(CCC2)C1 (stereo not shown) [Example 168, 3-(5-(4-((2-azaspiro[3.3]heptan-2-yl)methyl)-5-methylpyridin-2-yl)-1-oxoisoindolin-2-yl)piperidine-2,6-dione]
0.004	Cc1cnc(-c2ccc3c(c2)CN(C2CCC(=O)NC2=O)C3=O)cc1CN1CCC(C2CC2)C1 (stereo not shown) [Example 169, 3-(5-(4-((3-cyclopropylpyrrolidin-1-yl)methyl)-5-methylpyridin-2-yl)-1-oxoisoindolin-2-yl)piperidine-2,6-dione]
0.0052	COc1c(CN2CCC(C(C)(C)O)CC2)ccnc1-c1ccc2c(c1)CN(C1CCC(=O)NC1=O)C2=O (stereo not shown) [Example 172, 3-(5-(4-((4-(2-hydroxypropan-2-yl)piperidin-1-yl)methyl)-3-methoxypyridin-2-yl)-1-oxoisoindolin-2-yl)piperidine-2,6-dione]
0.0004	COc1c(CN2CCC(C3CC3)C2)ccnc1-c1ccc2c(c1)CN(C1CCC(=O)NC1=O)C2=O (stereo not shown) [Example 173, 3-(5-(4-((3-cyclopropylpyrrolidin-1-yl)methyl)-3-methoxypyridin-2-yl)-1-oxoisoindolin-2-yl)piperidine-2,6-dione]

SMILES	DC50 [µM]
C[C@@H]1c2c(ccc(-c3cc(CN4CC[C@H](F)C4)ccn3)c2F)C(=O)N1[C@H]1CCC(=O)NC1=O [Example 142]	0.706
